The values that follow are results of earlier work, collected in US20260048030A1, “REPARIXIN LIQUID SUSPENSIONS” (Dompe' Farmaceutici SPA, priority 2022, published 2026).

The test system of the data set is hospitalized patients with severe COVID-19 pneumonia. The settings on record: phase 2.

Take `CC(C)Cc1ccc([C@@H](C)C(=O)NS(C)(=O)=O)cc1` [Reparixin, R-(−)-2-(4-isobutylphenyl)propionyl methansulfonamide]: the “Clinical outcomes compared with the standard of care” value was “improved clinical outcomes”.
